ED50 data for 1 compound are collected here from patent publication US6228841A, “Peptide derivatives” (Daiichi Pharmaceutical Co., Ltd., priority 1995, dated 2001).

The experiment has as its system mice. Put plainly: analgesic activity by pressure stimulation method (base of tail). It counts as in vivo. Particulars: Mus musculus, read-out: ED50 (dose providing 50% of % of MPE, analgesic activity). On the procedure:
The analgesic activities of peptide derivatives of the present invention were evaluated by pressure stimulation method as follows. Mice were subjected to pressure stimulation at the bases of their tails at a rate of 10 mmHg/second. […] For the experiments, mice that were preliminary determined to respond to a pressure of 40-50 mmHg were used. The maximum stimulating pressure was 100 mmHg. Analgesic activity was calculated as percent of maximum possible effect (% of MPE) according to the following equation: [formula]
wherein Po is the pain reaction threshold before the administration of a drug; Pt is the pain reaction threshold "t" minutes after the administration of the drug; and Pc is the maximum stimulating pressure. According to a dose-response curve, ED50 value was determined as a dose of drug providing 50% of % of MEP and used for comparison of analgesic activity of drugs.

Each structure is given as a SMILES string. Read-outs that look alike come from different tables or passages of the source.

For `CN1CC[C@]23c4c5ccc(O)c4O[C@H]2[C@@H](O)C=C[C@H]3[C@H]1C5` [morphine], the ED50 is, setting by setting: (oral administration) 29.6 mg/kg; (sc, subcutaneous administration (skin in the backs)) 4.6 mg/kg.
